Data as given in ChEMBL document CHEMBL1201862, “PubChem BioAssay data set” (2004).
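Following 48 hours of exposure in 96-well plates, responses at five concentrations were used to interpolate endpoints linearly. The concentration for 50% growth inhibition is given as GI50.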 Active and inactive are the calls of the source. No stated cut-off is given here; in the data, active = GI50 up to about 1.1 µM and inactive = higher.

Assays:
Assay in all cases: NCI-60 cell line screen, 48 h
[1] = system: CCRF-CEM
[2] = system: NCI/ADR-RES
[3] = system: HCT-15
[4] = system: NCI-H23
[5] = system: MCF7
[6] = system: SK-MEL-2
[7] = system: UACC-257
[8] = system: DMS-114
[9] = system: SNB-19
[10] = system: HCT-116
[11] = system: A498
[12] = system: SNB-78
[13] = system: M19-MEL
[14] = system: SN12C
[15] = system: HT-29
[16] = system: MOLT-4
[17] = system: EKVX
[18] = system: SF-268
[19] = system: SK-OV-3
[20] = system: KM12
[21] = system: COLO 205
[22] = system: XF498
[23] = system: SF-539
[24] = system: SF-295
[25] = system: SW-620
[26] = system: HOP-92
[27] = system: LOX IMVI
[28] = system: OVCAR-3
[29] = system: DMS-273
[30] = system: HOP-18
[31] = system: NCI-H460
[32] = system: UACC-62
[33] = system: OVCAR-5
[34] = system: DLD-1
[35] = system: HOP-62
[36] = system: IGROV-1
[37] = system: UO-31
[38] = system: OVCAR-8
[39] = system: Malme-3M
[40] = system: OVCAR-4
[41] = system: SNB-75
[42] = system: HL-60
[43] = system: A549
[44] = system: NCI-H522
[45] = system: SK-MEL-28
[46] = system: SK-MEL-5
[47] = system: K562
[48] = system: NCI-H226
[49] = system: CAKI-1
[50] = system: HCC 2998
[51] = system: RPMI-8226
[52] = system: RXF 393
[53] = system: U-251
[54] = system: KM-20L2

Measured: GI50

COc1ccccc1Cc1nc(-c2ccccc2)nn(C2OC(COC(C)=O)C(OC(C)=O)C(OC(C)=O)C2OC(C)=O)c1=S (configuration not stated)
21.5 µM: [3]
inactive: [1] > 100 µM | [2] 9.1 µM | [4] 11.2 µM | [5] 6.84 µM | [6] 11.3 µM | [7] 54.3 µM | [8] 27.6 µM | [9] 5.75 µM | [10] 10.1 µM | [11] 10.2 µM | [12] 18.2 µM | [13] 32.7 µM | [14] 9.35 µM | [15] > 48.3 µM | [16] > 60 µM | [17] 25.1 µM | [18] 6.1 µM | [19] 36.7 µM | [20] > 54.6 µM | [21] > 40.4 µM | [22] 1.86 µM | [23] 9.14 µM | [24] 8.15 µM | [25] > 72.8 µM | [26] 7.31 µM | [27] 11.2 µM | [28] 21.6 µM | [29] > 39.2 µM | [30] 27.9 µM | [31] > 43.9 µM | [32] 14.5 µM | [33] > 100 µM | [34] > 31.3 µM | [35] 10.1 µM | [36] 31.1 µM | [37] > 48.2 µM | [38] 5.64 µM | [39] 5.53 µM | [40] 3.31 µM | [41] 3.08 µM | [42] > 64.7 µM | [43] 16.4 µM | [44] 6.5 µM | [45] 49.2 µM | [46] 8.73 µM | [47] > 58.3 µM | [48] 30.5 µM | [49] 16.8 µM | [50] > 24.8 µM | [51] 21.8 µM | [52] 3.13 µM | [53] 13.2 µM | [54] 29.1 µM

CC(NC(=O)C(C)NC(=O)C(N)CCP(C)(=O)O)C(=O)O (configuration not stated)
inactive: [1] > 100 µM | [2] > 100 µM | [4] > 100 µM | [5] > 100 µM | [6] > 100 µM | [7] > 100 µM | [9] > 100 µM | [10] > 100 µM | [11] > 100 µM | [12] > 100 µM | [13] > 100 µM | [14] > 100 µM | [15] > 100 µM | [16] > 100 µM | [17] > 100 µM | [18] > 100 µM | [19] > 100 µM | [20] > 100 µM | [21] > 100 µM | [22] > 100 µM | [23] > 100 µM | [24] > 100 µM | [25] > 100 µM | [26] > 100 µM | [27] > 100 µM | [28] > 100 µM | [29] > 100 µM | [30] > 100 µM | [31] > 100 µM | [32] > 100 µM | [33] > 100 µM | [34] > 100 µM | [35] > 100 µM | [36] > 100 µM | [37] > 100 µM | [38] > 100 µM | [39] > 100 µM | [40] > 100 µM | [41] > 100 µM | [42] > 100 µM | [43] > 100 µM | [44] > 100 µM | [45] > 100 µM | [46] > 100 µM | [47] > 100 µM | [48] > 100 µM | [49] > 100 µM | [50] > 100 µM | [51] > 100 µM | [52] > 100 µM | [53] > 100 µM | [54] > 100 µM
> 100 µM: [3]
